Structures can show the parent of a compound that is named as a salt.
Assays:
[1] = test system: nerve cells in the hippocampus CA1 region; assay: rat model for revascularization of vertebral-carotid artery occlusion (4-point ischemia), nerve cell death in hippocampus CA1; format: in vivo; conditions: oral once a day for 6 days
Method: Seven-week old Crlj:WI male rats (Charles River Laboratories Japan Inc.) were obtained, and they were provided to the experiment after being subjected to quarantine (for 5 days) and acclimatization (for 7 days or more). Throughout the experimentation period, the rats were bred in a breeding chamber maintained under a light-dark cycle (light period under room light: 6:00 AM to 6:00 PM), at a temperature of 23±3° C. and a humidity of 55±15%, and were allowed to freely take in solid feedstuff (CRF-1; Oriental Yeast Co., Ltd.) and drinking water (tap water).
Pitavastatin and ARICEPT were each suspended in a 0.5% (w/v) aqueous solution of carboxymethylcellulose sodium (hereinafter, CMC-Na, SIGMA), and prepared just before use such that the amount of administration would be 5 mL/kg.
The day of grouping was counted as the first day of administration, and the test drug was orally administered once a day for 6 days, thus 6 times in total. The normal group and the solvent control group were administered with a 0.5% (w/v) aqueous solution of CMC-Na.
On the fifth day of administration, 35 mg/kg of pentobarbital sodium (Nembutal (registered trademark) injectable solution, Dainippon Pharmaceutical Co., Ltd.) was intraperitoneally administered to the rats excluding those in the normal group. The right and left alar foramens were exposed from the first cervical spine part under anesthesia, and the vertebral arteries were thermally solidified using a soldering iron, so as to permanently occlude the vertebral arteries on both sides. […]
The fixated brains were dehydrated, infiltrated and embedded in paraffin, and a section having a thickness 10 μm was produced from the vicinity of Bregma −3.3 mm. […] The number of nerve cells was counted using an image analyzer (Win ROOF V5.6, Mitani Corporation), and the length of CA1 was measured.
According to the following formula, the number of nerve cells per unit length was determined, and the average value and standard deviation were calculated for each group. […]

nerve cells = conditions: pitavastatin 3 mg/kg single administration; Non-Patent Document 9; cited from earlier work

SMILES	number of nerve cells in the hippocampus CA1 region (cells/mm) vs solvent control group ([1]; Comparative Example 1, ARICEPT 0.5 mg/kg single administration, FIG. 2)	number of nerve cells in the hippocampus CA1 region (cells/mm) vs solvent control group ([1]; Example 1, ARICEPT 0.5 mg/kg single administration, FIG. 1)	number of nerve cells in the hippocampus CA1 region (cells/mm) vs solvent control group ([1]; Example 1, pitavastatin 3 mg/kg single administration, FIG. 1)	increase in the number of nerve cells, as reported in the literature (nerve cells)
COc1cc2c(cc1OC)C(=O)C(CC1CCN(Cc3ccccc3)CC1)C2 (stereo not shown) [ARICEPT, donepezil hydrochloride]	not significant	not significant	–	–
O=C([O-])C[C@H](O)C[C@H](O)/C=C/c1c(C2CC2)nc2ccccc2c1-c1ccc(F)cc1.O=C([O-])C[C@H](O)C[C@H](O)/C=C/c1c(C2CC2)nc2ccccc2c1-c1ccc(F)cc1.[Ca+2] [pitavastatin, pitavastatin calcium]	–	–	not significant	presence of significant difference

From patent publication US7973053B2, “Nerve cell death inhibitor” (priority 2007, dated 2011)
